PubChem BioAssay (NCI)
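48-hour exposure; five concentrations; linearly interpolated endpoints. Definition used: TGI = concentration required for complete inhibition of growth.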

What was measured:
Assay in all cases: DTP human tumour cell line panel, 48 h
HT29 colon = system: HT29 colon
OVCAR-5 ovarian = system: OVCAR-5 ovarian
NCI-H23 lung = system: NCI-H23 lung
T-47D breast = system: T-47D breast
CAKI-1 renal = system: CAKI-1 renal
SF-539 CNS = system: SF-539 CNS
K-562 leukemia = system: K-562 leukemia
U251 CNS = system: U251 CNS
MALME-3M melanoma = system: MALME-3M melanoma
NCI/ADR-RES ovarian = system: NCI/ADR-RES ovarian
UACC-62 melanoma = system: UACC-62 melanoma
ACHN renal = system: ACHN renal
KM12 colon = system: KM12 colon
SK-MEL-28 melanoma = system: SK-MEL-28 melanoma
A549 NSCLC = system: A549 NSCLC
LOX IMVI melanoma = system: LOX IMVI melanoma
SR leukemia = system: SR leukemia
OVCAR-8 ovarian = system: OVCAR-8 ovarian
HS 578T breast = system: HS 578T breast
UO-31 renal = system: UO-31 renal
HOP-62 NSCLC = system: HOP-62 NSCLC
786-0 renal = system: 786-0 renal
A498 renal = system: A498 renal
SNB-19 CNS = system: SNB-19 CNS
UACC-257 melanoma = system: UACC-257 melanoma
OVCAR-4 ovarian = system: OVCAR-4 ovarian
COLO 205 colon = system: COLO 205 colon
SW-620 colon = system: SW-620 colon
TK-10 renal = system: TK-10 renal
SNB-75 CNS = system: SNB-75 CNS
M14 melanoma = system: M14 melanoma
OVCAR-3 ovarian = system: OVCAR-3 ovarian
SK-OV-3 ovarian = system: SK-OV-3 ovarian
EKVX NSCLC = system: EKVX NSCLC
BT-549 breast = system: BT-549 breast
SF-295 CNS = system: SF-295 CNS
DU-145 prostate = system: DU-145 prostate
HCT-116 colon = system: HCT-116 colon
HL-60(TB) leukemia = system: HL-60(TB) leukemia
MDA-MB-435 = system: MDA-MB-435
MDA-MB-231 breast = system: MDA-MB-231 breast
NCI-H460 lung = system: NCI-H460 lung
RXF 393 renal = system: RXF 393 renal
HCC-2998 colon = system: HCC-2998 colon
HCT-15 colon = system: HCT-15 colon
MOLT-4 leukemia = system: MOLT-4 leukemia
MDA-N = system: MDA-N
SK-MEL-2 melanoma = system: SK-MEL-2 melanoma
PC-3 prostate = system: PC-3 prostate
NCI-H522 lung = system: NCI-H522 lung
SF-268 CNS = system: SF-268 CNS
RPMI-8226 leukemia = system: RPMI-8226 leukemia
CCRF-CEM leukemia = system: CCRF-CEM leukemia
NCI-H226 lung = system: NCI-H226 lung
SN12C renal = system: SN12C renal
SK-MEL-5 melanoma = system: SK-MEL-5 melanoma
MCF7 breast = system: MCF7 breast
IGROV1 ovarian = system: IGROV1 ovarian

`CCN(CC)C1Oc2cc3c(cc2C(c2cccc(OC)c2O)C1C)OCO3` (stereo not drawn) showed a TGI (HT29 colon) of 27.5 µM, a TGI (OVCAR-5 ovarian) of 48.5 µM and a TGI (NCI-H23 lung) of 43.5 µM. For the same compound, the TGI (T-47D breast) was > 86 µM, the TGI (CAKI-1 renal) was 27 µM and the TGI (SF-539 CNS) was 6.3 µM. For the same compound, the TGI (K-562 leukemia) was > 100 µM, the TGI (U251 CNS) was 17.9 µM and the TGI (MALME-3M melanoma) was 21.7 µM. For the same compound, the TGI (NCI/ADR-RES ovarian) was 53.8 µM, the TGI (UACC-62 melanoma) was 28.5 µM and the TGI (ACHN renal) was 40.4 µM. It also gave a TGI (KM12 colon) of 16.6 µM, a TGI (SK-MEL-28 melanoma) of 42.2 µM and a TGI (A549 NSCLC) of 24.6 µM. For the same compound, the TGI (LOX IMVI melanoma) was 22.2 µM, the TGI (SR leukemia) was 25.3 µM and the TGI (OVCAR-8 ovarian) was > 80.8 µM. The TGI (HS 578T breast) was 18.7 µM, the TGI (UO-31 renal) was 49.5 µM and the TGI (HOP-62 NSCLC) was 21.3 µM. The TGI (786-0 renal) was 26.3 µM, the TGI (A498 renal) was 7.24 µM and the TGI (SNB-19 CNS) was 31.4 µM. The TGI (UACC-257 melanoma) was > 50.4 µM, the TGI (OVCAR-4 ovarian) was > 100 µM and the TGI (COLO 205 colon) was 13.6 µM. For the same compound, the TGI (SW-620 colon) was 35.4 µM, the TGI (TK-10 renal) was > 100 µM and the TGI (SNB-75 CNS) was 23.1 µM. For the same compound, the TGI (M14 melanoma) was 12.6 µM, the TGI (OVCAR-3 ovarian) was 5.5 µM and the TGI (SK-OV-3 ovarian) was > 61.3 µM. The TGI (EKVX NSCLC) was 62.3 µM, the TGI (BT-549 breast) was > 44.9 µM and the TGI (SF-295 CNS) was 15.4 µM. For the same compound, the TGI (DU-145 prostate) was > 66.7 µM, the TGI (HCT-116 colon) was 21.1 µM and the TGI (HL-60(TB) leukemia) was 7.18 µM. For the same compound, the TGI (MDA-MB-435) was 4.96 µM, the TGI (MDA-MB-231 breast) was > 49.7 µM and the TGI (NCI-H460 lung) was 21.9 µM. The TGI (RXF 393 renal) was 21.2 µM, the TGI (HCC-2998 colon) was > 46.7 µM and the TGI (HCT-15 colon) was > 53.2 µM. For the same compound, the TGI (MOLT-4 leukemia) was 28 µM, the TGI (MDA-N) was 5.82 µM and the TGI (SK-MEL-2 melanoma) was 27.4 µM. For the same compound, the TGI (PC-3 prostate) was > 35.8 µM, the TGI (NCI-H522 lung) was 7.3 µM and the TGI (SF-268 CNS) was > 54 µM. For the same compound, the TGI (RPMI-8226 leukemia) was 13.6 µM, the TGI (CCRF-CEM leukemia) was 16.3 µM and the TGI (NCI-H226 lung) was 13.3 µM. The TGI (SN12C renal) was 16.4 µM, the TGI (SK-MEL-5 melanoma) was 13.6 µM and the TGI (MCF7 breast) was > 46 µM. For the same compound, the TGI (IGROV1 ovarian) was > 56 µM.
